Non-standard residues stand in square brackets, D forms with d. Residues, ends and D or L forms follow the SMILES beside them. *: point of attachment. X1 = O=C1CC(C(=O)*)N(CCC(c2ccccc2)c2ccccc2)C(=O)CN1CCc1ccc(Cl)cc1Cl; N(2,4-Cl2-phenethyl)Gly = O=C(O)CNCCc1ccc(Cl)cc1Cl
Target: T1, recombinant Apaf-1 (Homo sapiens, UniProt O14727)
T1 construct: made in house
T1 sequence (O14727 1-1248): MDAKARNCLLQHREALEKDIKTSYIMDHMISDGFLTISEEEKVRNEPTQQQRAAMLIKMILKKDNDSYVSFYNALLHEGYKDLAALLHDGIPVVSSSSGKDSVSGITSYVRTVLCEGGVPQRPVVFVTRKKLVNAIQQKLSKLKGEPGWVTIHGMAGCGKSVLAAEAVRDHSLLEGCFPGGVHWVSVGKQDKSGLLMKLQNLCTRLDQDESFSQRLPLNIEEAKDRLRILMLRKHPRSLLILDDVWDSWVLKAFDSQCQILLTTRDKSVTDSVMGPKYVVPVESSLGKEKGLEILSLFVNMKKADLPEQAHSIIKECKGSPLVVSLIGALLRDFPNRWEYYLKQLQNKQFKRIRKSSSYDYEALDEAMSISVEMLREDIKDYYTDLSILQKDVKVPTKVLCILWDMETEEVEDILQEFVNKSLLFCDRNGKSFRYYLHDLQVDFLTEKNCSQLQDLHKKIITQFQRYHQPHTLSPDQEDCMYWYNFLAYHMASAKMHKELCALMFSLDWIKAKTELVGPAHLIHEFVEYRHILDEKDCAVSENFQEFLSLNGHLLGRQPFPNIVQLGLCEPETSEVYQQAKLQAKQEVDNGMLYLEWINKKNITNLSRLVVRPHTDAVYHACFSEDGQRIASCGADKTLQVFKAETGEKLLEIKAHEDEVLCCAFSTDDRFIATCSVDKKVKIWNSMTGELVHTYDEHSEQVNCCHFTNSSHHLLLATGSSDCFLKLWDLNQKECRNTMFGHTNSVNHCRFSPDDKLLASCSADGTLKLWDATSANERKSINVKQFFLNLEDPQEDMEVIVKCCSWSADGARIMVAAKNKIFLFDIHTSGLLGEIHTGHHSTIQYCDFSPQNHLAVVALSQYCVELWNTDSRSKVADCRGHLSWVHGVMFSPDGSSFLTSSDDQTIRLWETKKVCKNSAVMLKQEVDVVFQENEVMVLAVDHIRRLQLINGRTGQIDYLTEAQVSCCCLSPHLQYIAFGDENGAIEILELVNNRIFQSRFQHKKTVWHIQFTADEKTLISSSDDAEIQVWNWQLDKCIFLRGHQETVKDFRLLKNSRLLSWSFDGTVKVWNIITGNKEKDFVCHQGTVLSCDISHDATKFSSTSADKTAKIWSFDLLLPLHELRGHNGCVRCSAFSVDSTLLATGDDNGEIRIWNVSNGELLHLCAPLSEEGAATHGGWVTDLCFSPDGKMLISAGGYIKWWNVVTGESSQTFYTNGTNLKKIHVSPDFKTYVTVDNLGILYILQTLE
Assay: Cell-free caspase inhibition assay, Hek-293 FT cytoplasmatic fraction with recombinant Apaf-1
Type: biochemical
Conditions: Hek-293 FT fraction + recombinant Apaf-1 (FIG. 1), read-out: IC50, concentration needed to inhibit 50% of caspase activity
Description: The activity of the compounds regards their specific target within the apoptotic machinery was assessed. Apaf-1 oligomerisation is a molecular event that leads to the activation of the apoptosome formation, which ends up in the induction of apoptosis. These experiments were performed in cell-free and in cellular assays.
For the cell-free assays, Hek-293 cytoplasmatic extracts were prepared as described before (Malet et al, 2005) and a partitioning of the complete cell extract was carried out. Concomitantly, recombinant Apaf-1 was purified according to Malet et al, 2005. The FT fraction (containing caspase-3 and -9 but lacking Apaf-1), was incubated with recombinant Apaf-1 in the presence of different concentrations of the compounds (see FIG. 1). The activity of the compounds was analysed by the inhibition of caspase activity (see above).
FIG. 1: Cell-free caspase inhibition assay using Hek-293 FT cytoplasmatic fraction incubated with recombinant Apaf-1 in the presence of different concentrations the compound IIa.1.

IC50: ~30 µM
Compound: NCCCC[C@H](NC(=O)CNC(=O)CNC(=O)CN(CCc1ccc(Cl)cc1Cl)C(=O)C1CC(=O)N(CCc2ccc(Cl)cc2Cl)CC(=O)N1CCC(c1ccccc1)c1ccccc1)C(N)=O (stereo partly shown) [IIa.1, 1-[2-(2,4-Dichlorophenyl)ethyl]-3-(3,3-diphenyl-propyl)-3,7-dioxo[1,4]diazepane-5-carboxylic acid {[({[(5-amino-1-carbamoylpentylcarbamoyl)methyl]-carbamoyl}methyl)carbamoyl]methyl}-[2-(2,4-dichlorophenyl)ethyl]amide] (X1-[N(2,4-Cl2-phenethyl)Gly]GGK-NH2)

Reference: US20090298781A1, “COMPOUNDS FOR THE INHIBITION OF APOPTOSIS” (CONSEJO SUPERIOR DE, priority 2005, published 2009)
